Reference: patent publication US20240002430A1, “METHOD FOR PRODUCING PROTEIN COMPOSITIONS” (HOFFMAN-LA ROCHE INC., priority 2020, published 2024)

Tests used:
[1] = general statement in the description, no test described; cited from earlier work
lipase CalB2 = molecular target: T1, lipase CalB2 (Moesziomyces antarcticus, UniProt P41365); test: Targeted LC-MS proteomics of lipase bound to bis-enol-ester functionalized magnetic beads; format: binding; settings: compound C coupled to azide modified polystyrene magnetic beads; CalB2 + Herceptin mixture, over night 40° C.; after extensive washing; vs non-functionalized beads
T1 sequence (P41365 26-342): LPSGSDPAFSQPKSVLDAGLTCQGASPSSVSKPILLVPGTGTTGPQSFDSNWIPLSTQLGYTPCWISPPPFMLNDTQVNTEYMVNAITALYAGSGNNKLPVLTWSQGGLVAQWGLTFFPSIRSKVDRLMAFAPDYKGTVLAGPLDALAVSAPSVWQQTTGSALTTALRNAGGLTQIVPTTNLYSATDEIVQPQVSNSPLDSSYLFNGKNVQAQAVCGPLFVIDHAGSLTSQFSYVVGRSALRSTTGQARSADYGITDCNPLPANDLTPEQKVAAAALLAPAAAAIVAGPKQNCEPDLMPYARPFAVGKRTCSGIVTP
Protocol: Test sample: Herceptin (mAb; 0.2 μg/μl in Na-Phosphate-Buffer) as control protein for the LC-MS based proteomics workflow was mixed with the lipase CalB2 (CalB2; […] in Na-Phosphate-Buffer) in a ca. 1:1 (mol/mol) ratio) as target. The above-mentioned samples were addressed with compound C (bis-enol-ester) covalently coupled to 60 μg azide modified magnetic particles (60 μl of a […] aqueous solution were prepared) (Polystyrene based azide beads; CLK-1036-1, Jena-Bioscience) which were made by click reaction and purification (see protocol experiment Example 1 and general procedure described for the Jena-Bioscience click protocol). […]
The targeted LC-MS analysis was performed using Water/Acetonitrile gradients with TFA (0.05% v(v) as buffer. The separation column was a PepSwift Monolithic Capillary Column, 200 μm×5 cm, P/N: 161409. As mass spectrometer, a Thermo LTQ FT system was used. Further experimental design for quantitative analyses followed general experimental targeted LC-MS procedures. The proteins bound to the beads were applied to the LC-MS system by injection of 1 μl of the digested sample on the analytical column. […]

For `CCCCCCCCCCC[C@@H](C[C@@H]1OC(=O)[C@H]1CCCCCC)OC(=O)[C@H](CC(C)C)NC=O` [Orlistat], the solubility in water [1] is given as “highly insoluble in water”.
For `C#CCCCC(=C/OC(=O)CCCCCCCCCCC)/C=C/OC(=O)CCCCCCCCCCC` [bis-enol ester], the “binding of model lipase CalB2 to functionalized beads (LC-MS peptide peak intensities, FIG. 6)” value (lipase CalB2) was “binds to beads functionalized with bis-enol ester even when subjected to extensive washing steps”.
